Results on 19 compounds are retold here after patent US10183913B2, “Pyrazole compound” (Sumitomo Dainippon Pharma Co., Ltd., priority 2010, dated 2019).

By Ki is commonly meant a measure of affinity in units of concentration, obtained from inhibition or displacement.

Assay [1] deals with T1, human serotonin 2C receptor (h-5-HT2C) (Homo sapiens (Human), UniProt P28335). As to the kind of experiment: 5-HT2C receptor agonistic action assay (FLIPR Calcium 4 Assay kit, h-5-HT2C/CHO cells). The class given is cell-based. As for the experimental part:
3-1. The Cells and Inoculation Thereof
In the experiment, human serotonin 2C receptor (h-5-HT2C) was expressed in CHO cells (h-5-HT2C/CHO). The cells were incubated with UltraCHO Lipuid (trademark) (manufactured by BioWhitakker) containing 1% FBS, 400 μg/mL Geneticin, 100 U/mL penicillin—100 μg/mL streptomycin (all manufactured by Sigma Aldrich) and 250 μg/mL Zeosin (manufactured by InvivoGen) in an incubator containing 5% CO2. On the day before using the cells, they were detached and collected using 250 μg/mL Trypsin solution (manufactured by Nacalai Tesque), then inoculated in a 96 well flat clear bottom black polystyrene TC-treated microplates (manufactured by Corning) at 40000 cells/well/60 μL in an incubator containing 5% CO2 for 16 hours to 24 hours.
3-2. 5-HT2C Receptor Agonistic Action Assay
The 5-HT2C receptor agonistic action was evaluated with FLIPR Calcium 4 Assay kit (manufactured by Molecular Devices). In specific, to the cells inoculated in the plate were added Component A of FLIPR Calcium 4 Assay kit dissolved in 100 mL of HHBP buffer (1×Hanks buffer, 20 mmol/L HEPES, both manufactured by Gibco) at an amount of 40 μL/well, and the cells were incubated in an incubator containing 5% CO2 for 1 hour. Then, the cells were set in FLIPR TETRA (trademark) (manufactured by Molecular Devices), to the cells was added the test material diluted with HHBP buffer, 2.5 mmol/L Probenecid (manufactured by Sigma) (concentration after dilution: 10 μmol/L) at an amount of 20 μL/well, and the fluorescence was measured. Then, in order to evaluate the antagonistic action of the test material, 20 μL/well of 5-HT solution (manufactured by Sigma, final concentration: 0.1 nmol/L) was further added to the cells, and the fluorescence was measured.
The 5-HT2C receptor agonistic action of each test material was calculated as a rate of fluorescence enhancement wherein 100% was defined as a value when the cells were given 10 μmol/L 5-HT. Furthermore, the 5-HT2C receptor inverse agonistic action was calculated as a rate of fluorescence decay wherein −100% was defined as a value when the cells were given 10 μmol/L SB206553 (manufactured by Sigma Aldrich). A lower value of the 5-HT2C receptor agonistic action of the test material means that the material has a higher antagonistic action. In particular, when the value of the 5-HT2C receptor agonistic action of the test material is below 0%, the material has an inverse agonistic action for 5-HT2C receptor.

Assay [2] deals with human serotonin transporter (h-SERT) (Homo sapiens (Human), UniProt P31645). Put plainly: [3H] citalopram binding assay to evaluate human serotonin reuptake inhibitory action (h-SERT binding assay). As for the experimental part: Citalopram Binding Assay to Evaluate Human Serotonin Reuptake Inhibitory Action
(§1) Preparation of the Cells and Membrane Preparations
In the experiment, human serotonin transporter (h-SERT) was expressed in CHO cells (h-SERT/CHO). The cells were incubated with F12 containing 10% FCS, 500 μg/mL Geneticin and 100 U/mL penicillin—100 μg/mL streptmycin (all manufactured by Sigma Aldrich) in an incubator containing 5% CO2; detached and collected using a SERT buffer [50 mmol/L Tris-HCl comprising 120 mmol/L NaCl and 5 mmol/L KCl (pH=7.4)]; homogenized with a homogenizer manufactured by Teflon (trademark); and then centrifuged (50,000×g, 30 min, 4° C.). The precipitate was suspended again in the appropriate amount of SERT buffer (to give a membrane preparation), and stored at −80° C. until used. The amount of protein in the membrane preparation was assayed by Dye Reagent Concentrate (manufactured by BIO-RAD) using bovine serum albumin (manufactured by Sigma Aldrich) as a standard.
1-2. h-SERT Binding Assay
The [^3H] citalopram binding was measured according to the method disclosed in Owens M. J. et al., J. Pharm. […] The solution was reacted at room temperature for 60 minutes, and then quickly suction-filtered under reduced pressure through a glass fiber filter coated with 0.05% aq. polyethyleneimine. The glass fiber filter was washed twice with […] of the SERT buffer, placed in a plastic vial containing 4 mL of liquid scintillator (ACS-II, manufactured by Amersham) or Ecoscint A (manufactured by National Diagnostics), and the remaining radioactivity on the filter paper was assayed with a liquid scintillation counter.

In assay [3] the target is T1, human serotonin 2C receptor (h-5-HT2C). As to the kind of experiment: [3H] mesulergine binding assay to evaluate affinity for human 5-HT2C receptor. To be noted: h-5-HT2C/CHO membrane preparation, read-out: Test Ex. 2: 5-HT2C receptor binding inhibition constant Ki. The procedure:
Mesulergine Binding Assay to Evaluate Affinity for Human 5-HT2C Receptor
as §1
In the experiment, human serotonin 2C receptor (h-5-HT2C) was expressed in CHO cells (h-5-HT2C/CHO). The cells were incubated with UltraCHO Lipuid (trademark) (manufactured by BioWhitakker) containing 1% FBS, 400 μg/mL Geneticin, 100 U/mL penicillin—100 μg/mL streptomycin (all manufactured by Sigma Aldrich) and 250 μg/mL Zeosin (manufactured by InvivoGen) in an incubator containing 5% CO2; detached and collected using 50 mmol/L Tris-HCl (pH=7.4); homogenized with a homogenizer manufactured by Teflon (trademark); and then centrifuged (48,000×g, 25 min, 4° C.). The precipitate was suspended again in the appropriate amount of 50 mmol/L Tris-HCl (to give a membrane preparation), and stored at −80° C. until used. The amount of protein in the membrane preparation was assayed by Dye Reagent Concentrate (manufactured by BIO-RAD) using bovine serum albumin (manufactured by Sigma Aldrich) as a standard.
2-2. 5-HT2C Receptor Binding Assay
A solution of 200 μL in total was prepared by mixing 50 μL of [^3H] mesulergine (manufactured by GE Healthcare) diluted with 50 mmol/L Tris-HCl (pH=7.4) (final concentration: about 2 nmol/L), 149 μL of the h-5-HT2C/CHO membrane preparation (protein amount: 20 μg/well), and 1 μL of the test drug dissolved in dimethylsulfoxide. The solution was reacted at 37° C. for 30 minutes, and then quickly suction-filtered under reduced pressure through a glass fiber filter coated with 1% aq. bovine serum albumin. The glass fiber filter was washed twice with 250 μL of 50 mmol/L Tris-HCl (pH=7.4), placed in a plastic vial containing 4 mL of liquid scintillator (ACS-II, manufactured by Amersham) or Ecoscint A (manufactured by National Diagnostics), and the remaining radioactivity on the filter paper was assayed with a liquid scintillation counter. The non-specific binding of [^3H] mesulergine was defined as a binding amount in the presence of 10 μmol/L SB206553 (manufactured by Sigma Aldrich). The IC50 value was calculated according to Hill analysis, and the binding inhibition constant (Ki) was calculated according to the following formula: Binding inhibition constant (Ki)=IC50/(1+S/Kd) wherein S is a concentration of the added [^3H] mesulergine, and Kd is a binding dissociation constant of [^3H] mesulergine which was calculated from a saturated binding assay using the same cell membrane.

Setting [4] is: test material 10 μmol/L, 100% = 10 μmol/L 5-HT, −100% = 10 μmol/L SB206553, below 0% = inverse agonistic action.
Where [5] appears, read: [3H] citalopram binding, read-out: Test Ex. 1: h-SERT binding inhibition constant Ki.

SMILES strings stand for the structures. Like-named read-outs stand apart in the source and are kept apart here.

T1 sequence (P28335 whole entry, looked up): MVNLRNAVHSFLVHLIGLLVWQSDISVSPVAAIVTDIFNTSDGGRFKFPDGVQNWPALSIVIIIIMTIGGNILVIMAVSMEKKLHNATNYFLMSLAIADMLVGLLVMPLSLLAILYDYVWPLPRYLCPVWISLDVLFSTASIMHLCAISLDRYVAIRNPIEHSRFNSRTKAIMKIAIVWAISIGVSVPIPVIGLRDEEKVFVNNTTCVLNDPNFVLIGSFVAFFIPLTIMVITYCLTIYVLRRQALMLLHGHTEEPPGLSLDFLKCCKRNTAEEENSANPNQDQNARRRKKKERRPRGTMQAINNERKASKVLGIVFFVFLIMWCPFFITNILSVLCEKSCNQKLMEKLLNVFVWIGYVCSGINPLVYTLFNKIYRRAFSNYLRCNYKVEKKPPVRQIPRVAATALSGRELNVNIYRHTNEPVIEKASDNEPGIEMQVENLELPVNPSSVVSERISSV

For the compound `CNC(C)c1cc(OCc2cc(F)ccc2F)n(CCC2CCCC2)n1` (single isomer, unassigned; (+)) [Example 477, (+)-1-{1-(2-cyclopentylethyl)-5-[(2,5-difluorobenzyl)-oxy]-1H-pyrazol-3-yl}-N-methylethanamine], the “Test Ex. 3: 5-HT2C receptor agonistic action” value in assay [1] (setting [4]) is given as −94%.

On to `CNCc1cc(OCc2cc(Cl)ccc2F)n(CC2CCCCO2)n1` (single isomer, unassigned; (-)) [Example 474, (−)-1-{5-[(5-chloro-2-fluorobenzyl)oxy]-1-(tetrahydro-2H-pyran-2-ylmethyl)-1H-pyrazol-3-yl}-N-methylmethanamine], for which, in assay [1] (setting [4]), the “Test Ex. 3: 5-HT2C receptor agonistic action” value is listed as −111%.

Take `CNC(C)c1cc(OCc2cc(F)ccc2F)n(CCC2CCCC2)n1` (single isomer, unassigned; (-)) [Example 476, (−)-1-{1-(2-cyclopentylethyl)-5-[(2,5-difluorobenzyl)-oxy]-1H-pyrazol-3-yl}-N-methylethanamine]: the “Test Ex. 3: 5-HT2C receptor agonistic action” value in assay [1] (setting [4]) is reported as −72%.

For the compound `CNCc1cc(OCc2cccc(OC)c2)n(CC2CCCCC2)n1` [Compound 42], in assay [1] (setting [4]), the “Test Ex. 3: 5-HT2C receptor agonistic action” value was −106%. In addition, the Ki in assay [2] (setting [5]) amounted to 4.9 nM.

In the case of `CNCc1cc(OCc2ccc(F)cc2C)n(CC2CCCCO2)n1` (stereo not drawn) [Compound 108], the Ki was 18 nM in assay [3] and 1.9 nM in assay [2] (setting [5]). For the same compound, the “Test Ex. 3: 5-HT2C receptor agonistic action” value in assay [1] (setting [4]) is reported as −117%.

On to `CNCc1cc(OCc2cc(Cl)ccc2F)n(CCC(C)OC)n1` (stereo not drawn) [Compound 405], for which the Ki in assay [3] is 23 nM; in assay [2] (setting [5]) it was 11 nM. In addition, the “Test Ex. 3: 5-HT2C receptor agonistic action” value in assay [1] (setting [4]) is on record as −90%.

With `CNCc1cc(OCc2cc(Cl)ccc2F)n(CC2(OC)CCCCC2)n1` [Compound 434], the “Test Ex. 3: 5-HT2C receptor agonistic action” value in assay [1] (setting [4]) is recorded as −87%. The Ki in assay [2] (setting [5]) came to 4.5 nM.

Turning to `CNCc1cc(OCc2ccccc2)n(CCCc2ccccc2)n1` [Example 3, 1-[5-(Benzyloxy)-1-(3-phenylpropyl)-1H-pyrazol-3-yl]-N-methylmethanamine], the Ki in assay [3] was 5.4 nM; in assay [2] (setting [5]), 12 nM. Moreover, the “Test Ex. 3: 5-HT2C receptor agonistic action” value in assay [1] is reported as −91%.

As for `CNCc1cc(OCc2ccccc2)n(CC2CCCCC2)n1` [Example 5, 1-[5-(Benzyloxy)-1-(cyclohexylmethyl)-1H-pyrazol-3-yl]-N-methylmethanamine], the values for the Ki in assay [3] and in assay [2] (setting [5]) were 4.4 nM and 1.5 nM, respectively. Also, in assay [1], the “Test Ex. 3: 5-HT2C receptor agonistic action” value is given as −91%.

In the case of `CNCc1cc(OCc2ccc(F)cc2F)n(CC2CCCC2)n1` [Example 144, 1-{1-(cyclopentylmethyl)-5-[(2,4-difluorobenzyl)oxy]-1H-pyrazol-3-yl}-N-methylmethanamine], the Ki came to 2.2 nM in assay [3] and 8.3 nM in assay [2] (setting [5]). In addition, in assay [1], the “Test Ex. 3: 5-HT2C receptor agonistic action” value is listed as −127%.

With `CNCc1cc(OCc2ccccc2F)n(Cc2ccc(F)cc2)n1` [Example 218, 1-{1-(4-fluorobenzyl)-5-[(2-fluorobenzyl)oxy]-1H-pyrazol-3-yl}-N-methylmethanamine], the Ki in assay [3] came to 10 nM; in assay [2] (setting [5]) it was 9.7 nM. Also, in assay [1] (setting [4]), the “Test Ex. 3: 5-HT2C receptor agonistic action” value was −111%.

As for `CCC(CC)n1nc(CNC)cc1OCc1ccc(F)cc1Cl` [Example 253], the Ki in assay [3] turned out to be 31 nM; in assay [2] (setting [5]) it was 1.5 nM. In addition, the “Test Ex. 3: 5-HT2C receptor agonistic action” value in assay [1] (setting [4]) is −86%.

For the compound `CNCc1cc(OCc2cc(Cl)ccc2F)n(CC(C)C)n1` [Example 256, 1-{5-[(5-chloro-2-fluorobenzyl)oxy]-1-(2-methylpropyl)-1H-pyrazol-3-yl}-N-methylmethanamine], in assay [1] (setting [4]), the “Test Ex. 3: 5-HT2C receptor agonistic action” value is reported as −97%.

Consider `CNCc1cc(OCc2cc(Cl)ccc2F)n(CC(C)(C)C)n1` [Example 259, 1-{5-[(5-chloro-2-fluorobenzyl)oxy]-1-(2,2-dimethylpropyl)-1H-pyrazol-3-yl}-N-methylmethanamine], for which the “Test Ex. 3: 5-HT2C receptor agonistic action” value in assay [1] (setting [4]) is given as −119%.

`CNCc1cc(OCc2cc(F)ccc2F)n(CCC(C)(C)C)n1` [Example 266, 1-{5-[(2,5-difluorobenzyl)oxy]-1-(3,3-dimethylbutyl)-1H-pyrazol-3-yl}-N-methylmethanamine]: the “Test Ex. 3: 5-HT2C receptor agonistic action” value in assay [1] (setting [4]) was −86%.

As for `CNCc1cc(OCc2cc(Cl)ccc2F)n(CCC(C)(C)OC)n1` [Example 275, 1-{5-[(5-chloro-2-fluorobenzyl)oxy]-1-(3-methoxy-3-methylbutyl)-1H-pyrazol-3-yl}-N-methylmethanamine], in assay [1], the “Test Ex. 3: 5-HT2C receptor agonistic action” value is reported as −88%.

Regarding `CNCc1cc(OCc2ccccc2)n(C(C)C2CCCC2)n1.Cl` (stereo not drawn) [Example 288, 1-[5-(Benzyloxy)-1-(1-cyclopentylethyl)-1H-pyrazol-3-yl]-N-methylmethanamine hydrochloride], the Ki came out at 19 nM in assay [3] and 0.86 nM in assay [2] (setting [5]). The “Test Ex. 3: 5-HT2C receptor agonistic action” value in assay [1] was −80%.

Consider `CNC(C)c1cc(OCc2cc(F)ccc2F)n(CCC2CCCC2)n1` (stereo not drawn) [Example 315, 1-{1-(2-cyclopentylethyl)-5-[(2,5-difluorobenzyl)oxy]-1H-pyrazol-3-yl}-N-methylethanamine], for which the “Test Ex. 3: 5-HT2C receptor agonistic action” value in assay [1] (setting [4]) is listed as −84%.

Consider `CNCc1cc(OCc2ccccc2)n(C(CO)C2CCCCC2)n1.Cl` (stereo not drawn) [Example 328, 2-{5-(Benzyloxy)-3-[(methylamino)methyl]-1H-pyrazol-1-yl}-2-cyclohexyl-ethanol hydrochloride], for which the Ki in assay [3] is 193 nM; in assay [2], 3.6 nM. In addition, in assay [1] (setting [4]), the “Test Ex. 3: 5-HT2C receptor agonistic action” value was −116%.
